According to patent US12428423B2, “1H-imidazo[4,5-h]quinazoline compound as protein kinase inhibitor” (SHENGKE PHARMACEUTICALS (JIANGSU) LTD., priority 2017, dated 2025):
Counter-ions that a name gives are not always drawn.

Tests used:
CDK6/cyclin D1 = CDK6/cyclin D1 (Homo sapiens (Human), UniProt Q00534); assay: Biochemical kinase inhibitory assay, CDK6/cyclin D1; settings: in the presence of 10 μM ATP
Description: Potency determination in the biochemical kinase inhibitory assay. Kinase activity assay and IC50 determination. […] The kinase reaction was initiated by the addition of 1 μg (1.5 μM) of recombinant retinoblastoma protein, 5 μM ATP and 10μ Ci γ-32P-ATP. The reaction was incubated at 30° C. for 20 minutes, and the reaction was stopped by the addition of 2× Laemmli sample buffer, heated at 95° C. for three minutes, and dissolved in 12% acrylamide SDS-PAGE for autoradiography. The corresponding phosphorylated substrate protein bands were quantified using a densitometer (Bio-Rad). […] The compounds disclosed herein were tested in a similar manner for their inhibitory activities against CDK6/cyclin D1, CDK2/cyclin A, CDK5/cyclin P25, CDK9/cyclin Ti, CDK7/cyclin H and CDK19/cyclin C. […] The reaction took place in the presence of 10 μM ATP.

CDK4/cyclin D1 = CDK4/cyclin D1 (Homo sapiens (Human), UniProt P11802); assay: Biochemical kinase inhibitory assay, CDK4/cyclin D1; settings: recombinant CDK4/cyclin D1; in the presence of 10 μM ATP
CDK4/cyclin D1, sequence (P11802 whole entry): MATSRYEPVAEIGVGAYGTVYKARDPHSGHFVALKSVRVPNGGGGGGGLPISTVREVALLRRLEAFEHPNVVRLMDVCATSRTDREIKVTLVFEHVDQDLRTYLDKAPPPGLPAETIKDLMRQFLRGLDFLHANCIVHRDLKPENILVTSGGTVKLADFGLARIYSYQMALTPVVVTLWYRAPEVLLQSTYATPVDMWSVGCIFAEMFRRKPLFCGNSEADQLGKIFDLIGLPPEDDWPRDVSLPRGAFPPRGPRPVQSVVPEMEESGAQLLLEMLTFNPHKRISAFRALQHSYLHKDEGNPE
CDK4/cyclin D1, sequence (P24385 whole entry partner): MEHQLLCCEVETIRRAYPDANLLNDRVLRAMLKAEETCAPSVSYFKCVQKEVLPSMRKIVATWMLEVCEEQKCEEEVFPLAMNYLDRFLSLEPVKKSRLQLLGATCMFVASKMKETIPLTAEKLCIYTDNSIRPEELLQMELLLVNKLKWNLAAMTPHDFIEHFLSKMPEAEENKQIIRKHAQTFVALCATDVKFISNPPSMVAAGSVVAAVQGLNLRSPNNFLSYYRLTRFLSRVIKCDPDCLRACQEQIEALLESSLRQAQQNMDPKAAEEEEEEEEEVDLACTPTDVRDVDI
Description: Potency determination in the biochemical kinase inhibitory assay. Kinase activity assay and IC50 determination. […] The kinase reaction was initiated by the addition of 1 μg (1.5 μM) of recombinant retinoblastoma protein, 5 μM ATP and 10μ Ci γ-32P-ATP. The reaction was incubated at 30° C. for 20 minutes, and the reaction was stopped by the addition of 2× Laemmli sample buffer, heated at 95° C. for three minutes, and dissolved in 12% acrylamide SDS-PAGE for autoradiography. The corresponding phosphorylated substrate protein bands were quantified using a densitometer (Bio-Rad). […] The reaction took place in the presence of 10 μM ATP.

CDK6/cyclin D1, sequence (Q00534 whole entry): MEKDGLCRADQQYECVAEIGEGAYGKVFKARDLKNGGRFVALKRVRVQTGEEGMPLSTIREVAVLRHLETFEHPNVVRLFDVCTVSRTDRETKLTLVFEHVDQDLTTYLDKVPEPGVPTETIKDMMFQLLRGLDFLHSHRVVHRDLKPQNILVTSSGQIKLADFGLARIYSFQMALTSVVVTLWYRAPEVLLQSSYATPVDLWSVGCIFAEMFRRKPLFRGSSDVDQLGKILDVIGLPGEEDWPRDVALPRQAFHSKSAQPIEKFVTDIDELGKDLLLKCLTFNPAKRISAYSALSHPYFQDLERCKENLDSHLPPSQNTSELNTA
CDK6/cyclin D1, sequence (P24385 whole entry partner): as the sequence (P24385 whole entry partner) above

IC50 (CDK6/cyclin D1) | IC50 (CDK4/cyclin D1) | SMILES
< 0.002 µM | < 0.002 µM | CC(C)n1cnc2ccc3cnc(Nc4ccc(N5CCNCC5)cn4)nc3c21 [Compound I-1, 1-Isopropyl-N-(5-(piperazin-1-yl)pyridin-2-yl)-1H-imidazo[4,5-h]quinazolin-8-amine hydrochloride]
0.002 to 0.01 µM | 0.002 to 0.01 µM | CC(C)n1cnc2ccc3cnc(Nc4ccc(N5CCN(C)CC5)cn4)nc3c21 [Compound I-2, 1-isopropyl-N-(5-(4-methylpiperazin-1-yl)pyridin-2-yl)-1H-imidazo[4,5-h]quinazolin-8-amine]
0.002 to 0.01 µM | 0.002 to 0.01 µM | Cc1cc(Nc2ncc3ccc4ncn(C(C)C)c4c3n2)ncc1N1CCN(C)CC1 [Compound I-3]
0.002 to 0.01 µM | 0.002 to 0.01 µM | Cc1nc(Nc2ncc3ccc4ncn(C(C)C)c4c3n2)ccc1N1CCN(C)CC1 [Compound I-4]
< 0.002 µM | < 0.002 µM | CCN1CCN(c2ccc(Nc3ncc4ccc5ncn(C(C)C)c5c4n3)nc2)CC1 [Compound I-5]
0.002 to 0.01 µM | 0.002 to 0.01 µM | CCN1CCN(c2cnc(Nc3ncc4ccc5ncn(C(C)C)c5c4n3)cc2C)CC1 [Compound I-6]
0.002 to 0.01 µM | 0.002 to 0.01 µM | CCN1CCN(c2ccc(Nc3ncc4ccc5ncn(C(C)C)c5c4n3)nc2C)CC1 [Compound I-7]
< 0.002 µM | < 0.002 µM | Cc1cc(Nc2ncc3ccc4ncn(C(C)C)c4c3n2)ncc1N1CCNCC1 [Compound I-8]
< 0.002 µM | < 0.002 µM | Cc1nc(Nc2ncc3ccc4ncn(C(C)C)c4c3n2)ccc1N1CCNCC1 [Compound I-9]
0.002 to 0.01 µM | 0.002 to 0.01 µM | CC(C)n1cnc2ccc3cnc(Nc4ccc(N5CCN[C@@H](C)C5)cn4)nc3c21 [Compound I-10]
0.002 to 0.01 µM | 0.002 to 0.01 µM | CC(C)n1cnc2ccc3cnc(Nc4ccc(N5CCNC(C)(C)C5)cn4)nc3c21 [Compound I-11]
0.002 to 0.01 µM | 0.002 to 0.01 µM | CC(C)n1cnc2ccc3cnc(Nc4ccc(N5C[C@@H](C)N[C@@H](C)C5)cn4)nc3c21 [Compound I-12]
0.01 to 0.05 µM | 0.01 to 0.05 µM | CC(C)n1cnc2ccc3cnc(Nc4cc(F)c(N5CCNCC5)cn4)nc3c21 [Compound I-13]
0.01 to 0.05 µM | 0.01 to 0.05 µM | CC(C)n1cnc2ccc3cnc(Nc4ccc(N5CCCNCC5)cn4)nc3c21 [Compound I-14]
0.01 to 0.05 µM | 0.01 to 0.05 µM | CC(C)n1cnc2ccc3cnc(Nc4ccc(N5CCN(CCO)CC5)cn4)nc3c21 [Compound I-15]
0.01 to 0.05 µM | 0.01 to 0.05 µM | CC(C)n1cnc2ccc3cnc(Nc4ccc(N5CCCCC5)cn4)nc3c21 [Compound I-16]
0.01 to 0.05 µM | 0.01 to 0.05 µM | CC(C)n1cnc2ccc3cnc(Nc4ccc(N5CCC(O)CC5)cn4)nc3c21 [Compound I-17]
0.01 to 0.05 µM | 0.01 to 0.05 µM | CC(C)n1cnc2ccc3cnc(Nc4ccc(N5CCC(CCCO)CC5)cn4)nc3c21 [Compound I-18]
0.01 to 0.05 µM | 0.01 to 0.05 µM | CC(C)n1cnc2ccc3cnc(Nc4ccc(N5CCC(N(C)C)CC5)cn4)nc3c21 [Compound I-19]
0.01 to 0.05 µM | 0.01 to 0.05 µM | CC(C)n1cnc2ccc3cnc(Nc4ccc(N5CCC(N(C)C)CC5)c(F)n4)nc3c21 [Compound I-20]

IC50 (CDK6/cyclin D1) | IC50 (CDK4/cyclin D1) | SMILES
0.01 to 0.05 µM | 0.01 to 0.05 µM | CC(C)n1cnc2ccc3cnc(Nc4ccc(N5CCC(N)CC5)cn4)nc3c21 [Compound I-21]
0.01 to 0.05 µM | 0.01 to 0.05 µM | CC(C)n1cnc2ccc3cnc(Nc4ccc(N5CCC(N)C5)cn4)nc3c21 (stereo not drawn) [Compound I-22]
< 0.002 µM | < 0.002 µM | CC(C)n1cnc2ccc3cnc(Nc4ccc(N5CCOCC5)cn4)nc3c21 [Compound I-23]
0.002 to 0.01 µM | 0.002 to 0.01 µM | Cc1cc(Nc2ncc3ccc4ncn(C(C)C)c4c3n2)ncc1N1CCOCC1 [Compound I-24]
0.002 to 0.01 µM | 0.002 to 0.01 µM | Cc1nc(Nc2ncc3ccc4ncn(C(C)C)c4c3n2)ccc1N1CCOCC1 [Compound I-25]
0.002 to 0.01 µM | 0.002 to 0.01 µM | CC1CN(c2ccc(Nc3ncc4ccc5ncn(C(C)C)c5c4n3)nc2)CCO1 (stereo not drawn) [Compound I-26]
0.002 to 0.01 µM | 0.002 to 0.01 µM | CC(C)n1cnc2ccc3cnc(Nc4ccc(N5C[C@@H](C)O[C@@H](C)C5)cn4)nc3c21 [Compound I-27]
0.01 to 0.05 µM | 0.01 to 0.05 µM | CC(C)n1cnc2ccc3cnc(Nc4ccc(N5CCC6(CCNCC6)C5)cn4)nc3c21 [Compound I-28]
0.01 to 0.05 µM | 0.01 to 0.05 µM | CC(C)n1cnc2ccc3cnc(Nc4ccc(N5CCC6(CNC6)C5)cn4)nc3c21 [Compound I-29]
0.01 to 0.05 µM | 0.01 to 0.05 µM | CC(C)n1cnc2ccc3cnc(Nc4ccc(N5CC6(CNC6)C5)cn4)nc3c21 [Compound I-30]
0.01 to 0.05 µM | 0.01 to 0.05 µM | CC(C)n1cnc2ccc3cnc(Nc4ccc(N5CCC6(CC5)CNC6)cn4)nc3c21 [Compound I-31]
0.01 to 0.05 µM | 0.01 to 0.05 µM | CC(C)n1cnc2ccc3cnc(Nc4ccc(N5CC6(CCNCC6)C5)cn4)nc3c21 [Compound I-32]
0.01 to 0.05 µM | 0.01 to 0.05 µM | CC(C)n1cnc2ccc3cnc(Nc4ccc(N5CCC6(CCC(=O)N6)CC5)cn4)nc3c21 [Compound I-33]
0.01 to 0.05 µM | 0.01 to 0.05 µM | CC(C)n1cnc2ccc3cnc(Nc4ccc(N5CCN(CCO)CC5)cc4)nc3c21 [Compound I-34]
0.01 to 0.05 µM | 0.01 to 0.05 µM | CC(C)n1cnc2ccc3cnc(Nc4ccc(N5CCNCC5)cc4F)nc3c21 [Compound I-35]
0.05 to 0.1 µM | 0.05 to 0.1 µM | COc1cc(OCCN(C)C)ccc1Nc1ncc2ccc3ncn(C(C)C)c3c2n1 [Compound I-36]
0.05 to 0.1 µM | 0.05 to 0.1 µM | COc1cc(OC2CCN(C)CC2)ccc1Nc1ncc2ccc3ncn(C(C)C)c3c2n1 [Compound I-37]
0.01 to 0.05 µM | 0.01 to 0.05 µM | CC(C)n1cnc2ccc3cnc(Nc4ccc(N5CCC(CCCO)CC5)cc4)nc3c21 [Compound I-38]
0.05 to 0.1 µM | 0.05 to 0.1 µM | COc1ccc2cc(Nc3ncc4ccc5ncn(C(C)C)c5c4n3)ccc2n1 [Compound I-39]
0.05 to 0.1 µM | 0.05 to 0.1 µM | COc1cc(C(=O)NC2CCN(C)CC2)ccc1Nc1ncc2ccc3ncn(C(C)C)c3c2n1 [Compound I-40]

IC50 (CDK6/cyclin D1) | IC50 (CDK4/cyclin D1) | SMILES
0.05 to 0.1 µM | 0.05 to 0.1 µM | CC(C)N1CCN(c2ccc(Nc3ncc4ccc5ncn(C(C)C)c5c4n3)nn2)CC1 [Compound I-41]
0.01 to 0.05 µM | 0.01 to 0.05 µM | CCn1cnc2ccc3cnc(Nc4ccc(N5CCNCC5)cn4)nc3c21 [Compound I-42]
0.01 to 0.05 µM | 0.01 to 0.05 µM | CCn1cnc2ccc3cnc(Nc4ccc(N5CCN(C)CC5)cn4)nc3c21 [Compound I-43]
0.01 to 0.05 µM | 0.01 to 0.05 µM | CCn1cnc2ccc3cnc(Nc4ccc(N5C[C@@H](C)O[C@@H](C)C5)cn4)nc3c21 [Compound I-44]
0.01 to 0.05 µM | 0.01 to 0.05 µM | CCn1cnc2ccc3cnc(Nc4ccc(N5CCOCC5)cn4)nc3c21 [Compound I-45]
0.01 to 0.05 µM | 0.01 to 0.05 µM | CCn1cnc2ccc3cnc(Nc4ccc(N5CCOC(C)C5)cn4)nc3c21 (stereo not drawn) [Compound I-46]
0.002 to 0.01 µM | 0.002 to 0.01 µM | c1cc(Nc2ncc3ccc4ncn(C5CC5)c4c3n2)ncc1N1CCNCC1 [Compound I-47]
0.01 to 0.05 µM | 0.01 to 0.05 µM | Cc1cc(Nc2ncc3ccc4ncn(C5CC5)c4c3n2)ncc1N1CCNCC1 [Compound I-48]
0.01 to 0.05 µM | 0.01 to 0.05 µM | c1cc(Nc2ncc3ccc4ncn(C5CC5)c4c3n2)ncc1N1CCOCC1 [Compound I-49]
0.01 to 0.05 µM | 0.01 to 0.05 µM | Cc1cc(Nc2ncc3ccc4ncn(C5CC5)c4c3n2)ncc1N1CCOCC1 [Compound I-50]
0.01 to 0.05 µM | 0.01 to 0.05 µM | Cc1nc(Nc2ncc3ccc4ncn(C5CC5)c4c3n2)ccc1N1CCOCC1 [Compound I-51]
0.01 to 0.05 µM | 0.01 to 0.05 µM | c1cc(Nc2ncc3ccc4ncn(C5CCC5)c4c3n2)ncc1N1CCNCC1 [Compound I-52]
0.01 to 0.05 µM | 0.01 to 0.05 µM | Cc1cc(Nc2ncc3ccc4ncn(C5CCC5)c4c3n2)ncc1N1CCNCC1 [Compound I-53]
0.01 to 0.05 µM | 0.01 to 0.05 µM | Cc1nc(Nc2ncc3ccc4ncn(C5CCC5)c4c3n2)ccc1N1CCNCC1 [Compound I-54]
0.01 to 0.05 µM | 0.01 to 0.05 µM | c1cc(Nc2ncc3ccc4ncn(C5CCC5)c4c3n2)ncc1N1CCOCC1 [Compound I-55]
0.01 to 0.05 µM | 0.01 to 0.05 µM | Cc1cc(Nc2ncc3ccc4ncn(C5CCC5)c4c3n2)ncc1N1CCOCC1 [Compound I-56]
< 0.002 µM | < 0.002 µM | c1cc(Nc2ncc3ccc4ncn(C5CCCC5)c4c3n2)ncc1N1CCNCC1 [Compound I-57]
0.002 to 0.01 µM | 0.002 to 0.01 µM | Cc1cc(Nc2ncc3ccc4ncn(C5CCCC5)c4c3n2)ncc1N1CCNCC1 [Compound I-58]
0.002 to 0.01 µM | 0.002 to 0.01 µM | Cc1nc(Nc2ncc3ccc4ncn(C5CCCC5)c4c3n2)ccc1N1CCNCC1 [Compound I-59]
0.002 to 0.01 µM | 0.002 to 0.01 µM | c1cc(Nc2ncc3ccc4ncn(C5CCCC5)c4c3n2)ncc1N1CCOCC1 [Compound I-60]
